Results on eight molecules are retold here after patent publication US6495663B1, “Method and composition for enhancing transport across biological membranes” (The Board of Trustees of the Leland Stanford Junior …, priority 1997, dated 2002).

For data set [1] the following is noted: cited from earlier work.
Data set [2] concerns Jurkat cells. Nature of the data set: Confocal cell microscopy of conjugate uptake. The format is cell-based, human. Particulars: 6.25 μM conjugate, 37° C., 10 minutes. Here is the method:
Cells incubated with fluorescent polyarginine peptides were prepared as described above for binding assays and analyzed at the Cell Sciences Imaging Facility (Stanford University, Stanford, Calif.) using a scanning, single beam laser confocal microscope, with an excitation wavelength of 488 nm (argon-ion laser) and an emission band-width of 510-550 using a band-pass filter. Conjugates (6.25 μM) containing tat(49-57), R7, or r7 coupled to fluorescein were incubated with Jurkat cells for 37° C. for 10 minutes. FIGS. 2A-2F show results for emitted fluorescence (FIGS. 2A-2C) and transmitted light (2D—2F) for tat(49-57) (FIGS. 2A and […]), R7 (FIGS. 2B and 2E), and r7 (FIGS. 2C and 2F).

Data set [3] relates to Jurkat cells. Nature of the data set: Kinetics of uptake (Michaelis-Menten, Lineweaver-Burk). The settings on record: for Km / VMAX: fluorescent conjugates, Jurkat cells, 0.5, 1, 2 and 4 minutes at 4° C., Lineweaver-Burk. Format: cell-based, human.
Description: Peptides were incubated with cells for 0.5, 1, 2, and 4 minutes at 4° C. in triplicate, in 50 μL of PBS/FCS in 96-well plates. At the end of incubation, the reaction was quenched by diluting the samples in 5 mL of PBS/FCS, centrifuging and washing once with PBS/FCS, trypsin/EDTA, and finally again with PBS/FCS, and taking up the pellets in PBS/FCS containing propidium iodide for analysis on a FACScan. FACS data were fitted to the Line-weaver-Burk equation for Michaelis-Menten kinetics.
Data set [4] is described as follows: Biological half-life / proteolysis by serum enzymes in uptake assay. Format: in vitro ADME. The settings on record: serum-containing assay.
In data set [5] the test system is E. coli strain HB101. Nature of the data set: Transport into bacterial cells (gram-negative). Format: cell-based. The settings on record: 30 minutes at 37° C., 3 to 50 μM conjugate. On the procedure: Gram-negative bacteria (E. coli strain HB101) and gram-positive bacteria (Strep. bovis) were grown in appropriate media in logarithmic phase. Cell cultures (4×10^8 per mL) were incubated for 30 minutes at 37° C. with varying concentrations of fluorescent conjugates containing linear polymers of L-arginine (R4 through R9), D-arginine (r4 through r9), or L-lysine (K9) at conjugate concentrations of 3 to 50 μM. The cells were washed and taken up in PBS-containing propidium iodide (to distinguish dead cells) and analyzed by FACS and fluorescent microscopy. Results are shown in FIGS. 5A-5C as discussed above.

Data set [6] deals with cells. Nature of the data set: Length range studies: uptake of longer polyarginine conjugates (FACS, mean fluorescence of live cells). Format: cell-based. Here is the method:
To examine the effect of substantially longer polymers, a mixture of L-arginine polymers with an average molecular weight of 12,000 daltons (≈100 amino acids) was also tested (Example 5). However, to avoid precipitation problems, the level of serum in the assay had to be reduced for testing conjugates with the ≈12,000 MW polymer material. Cell uptake was analyzed by FACS as above, and the mean fluorescence of live cells was measured. Cytotoxicity of each conjugate was also measured.
Suspension cells ([…]) were incubated for varying times, at 37° C., 23° C., or 4° C., with a range of concentrations of peptides or conjugates in PBS pH 7.2 containing 2% fetal calf serum (PBS/FCS) in 96 well plates. […] The pelleted cells were resuspended in PBS containing 2% FCS and 0.1% propidium iodide and analyzed on a FACScan (Becton Dickenson, Mountain View, Calif.). […]
The following homopolymers of polyarginine were tested by the fluorescence assay in Example 2, with incubation at 37° C. for 15 minutes prior to cell pelleting: r9, R9, R15, R20, R25, and R30. […] The cells were analyzed by FACS, and the mean fluorescence of the live cells was measured. Cytotoxicity of each conjugate was also measured by calculating the percentage of cells that stained with propidium iodide, which is characteristic of cell death. […]

The subject of data set [7] is Jurkat cells. The data set can be described thus: Fluorescence assay of cellular uptake of peptide-fluorescein conjugates (FACS). The settings on record: FIGS. 1A-1C. The format is cell-based, human.
The test system of data set [8] is gamma-IFN secretion by murine T cell line (clone 11.3). The data set can be described thus: Inhibition of gamma-IFN production by conjugates. Format: cell-based. Here is the method:
3. Gamma-IFN Assay. The amount of gamma interferon secreted by a murine T cell line (clone 11.3) was measured by incubating 10^5 T cells with varying amounts of antigen (peptide consisting of residues 110-121 of sperm whale myoglobin) and histocompatible spleen cells from DBA/2 mice (H-2d, 5×10^5), which act as antigen-presenting cells (APCs), in 96 well plates. After incubation for 24 hours at 37° C., 100 μL of the supernatants were transferred to microtiter plates coated with commercially available anti-gamma-IFN monoclonal antibodies (Mab) (Pharmingen, San Diego, Calif.). After incubation for an hour at room temperature, the plates were washed with PBS containing 1% fetal calf serum and 0.1% Tween®20, after which a second, biotinylated gamma-IFN Mab was added. After a second hour of incubation, the plates were washed as before, and europium (Eu)-streptavidin (Delphia-Pharmacia) was added. Again, after an hour of incubation, an acidic buffer was added to release Eu, which was measured by time-resolved fluorometry on a Delphia plate reader.
The ability of PNA-polyarginine conjugates to inhibit secretion of gamma-IFN was assayed by adding various concentrations of the above gamma-IFN conjugates with suboptimal doses of peptide antigen (0.5 μM), to a mixture of clone 11.3 T cells and histocompatible spleen cells.
After 24 hours, aliquots of the cultured supernatants were taken, and the amount of gamma-IFN was measured using the fluorescent binding assay described in section 3 above.

Data set [9] has as its target T1, RAF-1 in V7 immunocomplex (Homo sapiens, UniProt P04049).
T1 construct: T-cells which had been isolated by standard methods; endogenous in cells; host or cells: T-cells isolated by standard methods
Nature of the data set: Anti-V7 immunoprecipitation from peptide-treated T-cells. The format is cell-based. On the procedure: The conjugate was added (final concentration ≈10 μM) to T-cells which had been isolated by standard methods, and was incubated at 37° C. for several hours to overnight. Cells were lysed using detergent (1% Triton X-100). DNA was removed, and the soluble (protein-containing) fraction was subjected to immunoprecipitation with an anti-V7 murine monoclonal antibody in combination with goat anti-mouse IgG. RAF-1 is a kinase that associates with, and is inactivated by association with, V7.

Data set [10] deals with T2, complex consisting of RAF-1 and p21 Ras (Homo sapiens, UniProt P04049).
T2 construct: T-cells which had been isolated by standard methods; endogenous in cells; host or cells: T-cells isolated by standard methods
The data set can be described thus: Disruption of RAF-1/p21 Ras complex in peptide-treated T-cells. The format is cell-based. The settings on record: same peptide treatment.

Data set [11] concerns the target T3, RAF-1 kinase (Homo sapiens, UniProt P04049).
T3 construct: Anti-RAF-1 precipitates of T cells; endogenous in cells; host or cells: T cells
The data set can be described thus: RAF-kinase activity in anti-RAF-1 precipitates of T cells. Particulars: anti-RAF-1 precipitates of exposed T cells. The format is cell-based. The text has this:
In a second study, the V7 peptide portion of the V7-poly-arginine conjugate was phosphorylated in vitro using protein kinase C.

Data set [12] concerns cytotoxic T-lymphocytes. Nature of the data set: Transport of large protein antigen into APCs: stimulation of CTLs. The format is cell-based. The settings on record: 10 μM on B-cells (APCs). On the procedure:
The molar ratio of peptide conjugated to ovalbumin was quantified by amino acid analysis. The conjugate product was designated OV-R7. The conjugate was added (final concentration 10 μM) to B-cells, also referred to as antigen-presenting cells (APCs), which were isolated according to standard methods. The APCs were incubated with OV-R7, and then were added to a preparation of cytotoxic T-lymphocytes isolated by standard methods.

The test system of data set [13] is albumin-specific CTLs. Nature of the data set: Dendritic cells exposed to conjugate and injected into mice: CTL response in blood. The format is in vivo. The settings on record: dendritic cells exposed to antigen, then injected into mice. On the procedure: In another experiment, histocompatible dendritic cells (a specific type of APC) were exposed to albumin-R7 conjugates and were then injected into mice. […] Control mice were given dendritic cells that had been exposed to unmodified albumin.

Entries after “also recorded” stand apart in the source; their conditions may differ. No end group written: not given here. *: point of attachment. FITC = O=C1OC2(c3ccc(O)cc3Oc3cc(O)ccc32)c2ccc(NC(=S)*)cc21; Ahx = NCCCCCC(=O)O

In the case of `CC(=O)O[C@@]12CO[C@@H]1C[C@H](O)[C@@]1(C)C(=O)[C@H](O)C3=C(C)[C@@H](OC(=O)[C@H](O)[C@@H](NC(=O)OC(C)(C)C)c4ccccc4)C[C@@](O)([C@@H](OC(=O)c4ccccc4)[C@H]21)C3(C)C` [taxotere], the water solubility in data set [1] was 6 to 7 µg/mL.
A word on the Km: it is the concentration of substrate that gives half-maximal velocity. For “Arg-Lys-Lys-Arg-Arg-Gln-Arg-Arg-Arg (RKKRRQRRR; also: fluorescein conjugate, place not given here) [tat 49-57, polypeptide comprising HIV tat residues 49-57, fluorescein conjugate, reference compound]”, the “fluorescence of cytosol (confocal micrographs)” value in data set [2] is reported as “only weak staining”. In addition, in data set [3], the Km amounted to 722 µM and the VMAX turned out to be 0.38 µM/s.
Take H3N-rrrrrrrrr-COO^-: in [4], the proteolytic degradation result is “did not show evidence of proteolytic degradation”. For the same molecule, the “fluorescence of cytosol (confocal micrographs)” value in data set [2] is given as “brightly fluorescent”. Moreover, in [3], the Km came out at 7.21 µM and the VMAX stood at 0.39 µM/s. Moreover, the Km in data set [3] (listed as nonamer of D-arginine) worked out at 7 µM. Moreover, the “apparent affinity (Km) relative to tat peptide” value in data set [3] (greater apparent affinity than tat(49-57)) is reported as “approximately 100 fold”. The “uptake levels by E. coli HB 101 cells” value in [5] is recorded as “much higher uptake levels”. Also, in data set [6] (FIG. 3 data), the “rate of entering cells” value was “higher rates than polymers containing 15 or more contiguous arginines”. Moreover, the “uptake versus longer polymers” value in [6] (higher concentrations (>3 μM), 37° C., 15 minutes) is “significantly better than for the longer polymers”.
As to “K9: nonamer of L-Lys residues, fluorescein conjugate ({FITC-Ahx}-KKKKKKKKK; also: fluorescein conjugate, place not given here)”, the entries for the “cellular uptake (transport of fluorescein into cells)” value in data set [7] and in [7] (listed as poly-Lys nonamer) were “very little uptake” and “ineffective as a transporter”, respectively.
In the case of “NH2-rrrrrrr-AACGCTACAC-COOH (PNA, D-arginine heptamer conjugate, chemistry not fully specified) [sense PNA-r7]”, the “inhibition of gamma-IFN secretion” value in data set [8] (24 hours, peptide antigen 0.5 μM, equivalent molar amounts) is on record as “no inhibition”.
With “NH2-rrrrrrr-GTGTAGCGTT-COOH (all peptide nucleic acid (PNA); D-arginine heptamer attached at the N-terminus, further chemistry not fully specified) [antisense PNA-r7 conjugate]”, the “reduction in IFN secretion” value in data set [8] (24 hours, peptide antigen 0.5 μM) is recorded as “over 70%”. Moreover, the “conjugate level effective to block γ-IFN secretion” value in data set [8] (FIG. 7) is given as “above 10 μM”.
As to “V7 peptide: V7 cytoplasmic tail sequence KLSTLRSNT with 7 arginine residues attached to its C-terminus (KLSTLRSNTRRRRRRR)”, in [9], the “binding to RAF-1” value was “can bind to RAF-1”. Besides, in [9] (≈10 μM on T-cells, 37° C., several hours to overnight), the “RAF-1 co-precipitation with V7” value was “RAF-1 protein was eliminated from the V7 immuno-complex; also recorded: RAF-1 protein was eliminated from the V7 immunocomplex”. For the same molecule, in [10], the “disruption of complex of RAF-1 and p21 Ras” value is reported as “did not disrupt; also recorded: unable to disrupt”. Besides, the “inhibition of RAF-kinase activity” value in data set [11] is “not”.

B1: unmodified ovalbumin: ovalbumin (45 kDa) protein antigen, not conjugated (protein, UniProt P01012 2-386, looked up)
Ovalbumin: GSIGAASMEFCFDVFKELKVHHANENIFYCPIAIMSALAMVYLGAKDSTRTQINKVVRFDKLPGFGDSIEAQCGTSVNVHSSLRDILNQITKPNDVYSFSLASRLYAEERYPILPEYLQCVKELYRGGLEPINFQTAADQARELINSWVESQTNGIIRNVLQPSSVDSQTAMVLVNAIVFKGLWEKAFKDEDTQAMPFRVTEQESKPVQMMYQIGLFRVASMASEKMKILELPFASGTMSMLVLLPDEVSGLEQLESIINFEKLTEWTSSNVMEERKIKVYLPRMKMEEKYNLTSVLMAMGITDVFSSSANLSGISSAESLKISQAVHAAHAEINEAGREVVGSAEAGVDAASVSEEFRADHPFLFCIKHIATNAVLFFGRCVSP
Regarding B1, in [12], the “stimulation of CTLs by APCs incubated with antigen” value is recorded as “failed to stimulate the CTLs”. Moreover, the “albumin-specific CTL response in blood of mice” value in data set [13] was “did not exhibit the albumin-specific CTL response”.
